Measurements: US12110289B2, “Heterocyclic compounds, preparation methods and uses thereof” (InventisBio Co., Ltd., priority 2020, dated 2024)

Columns and labels:
[1] = test system: NCI-H358 xenograft; assay: NSCLC H358 xenograft model, tumor volume; format: in vivo, BALB/c nude mice; conditions: for reduction of tumor volume, combined treatment vs either agent alone: FIG. 5
Procedure: All the procedures related to animal handling, care and the treatment in this study were performed according to the guidelines approved by the Institutional Animal Care and Use Committee (IACUC) of SIPPER B&K following the guidance of the Association for Assessment and Accreditation of Laboratory Animal Care (AAALAC). At the time of routine monitoring, the animals were checked for any effects of tumor growth on normal behavior such as mobility, food and water consumption (by looking only), body weight gain/loss (body weights were measured twice weekly), eye/hair matting and any other abnormal effect. Death and observed clinical signs were recorded on the basis of the numbers of animals within each subset.
The NCI-H358, SW837, NCI-H2122 tumor cells were purchased from the American Type Culture Collection (ATCC). Cells were maintained in vitro as monolayer cultured in RPMI-1640 or DMEM medium supplemented with 10% fetal bovine serum, 50 IU/ml penicillin/streptomycin (GIBCO) at 37° C. in an atmosphere of 5% CO2 in air. The tumor cells were routinely sub cultured twice weekly by trypsin-EDTA treatment. The cells growing in an exponential growth phase were harvested and counted for tumor inoculation.
For tumor bearing models, female 6- to 8-week-old athymic BALB/c nude mice were used for human cancer cell lines. Each mouse was inoculated subcutaneously at the right flank with tumor cells (10×10^6) in 0.1 ml of PBS. The treatments were started when the average tumor size reached approximately 200-250 mm^3. Carboplatin, Cisplatin was injected twice a week by i.p. Vehicles and other test articles were given orally as a suspension by gavage once daily during the study or treatment period.
Tumor volume was calculated by measuring two perpendicular diameters using the following formula: (L×W 2)/2 in which L and W refer to the length and width tumor diameter, respectively. Results are expressed as mean and standard deviation of the mean.

[2] = Rat PK study, single i.g. dose; format: in vivo; conditions: female, SD, plasma, PO, 10 mg/kg
Procedure: The pharmacokinetic (PK) profile of compounds following single i.g in SD rat obtained from […] Laboratory Animal Co., LTD of Shanghai was determined. Three female rats of weight around 220 g were used. Compounds were prepared at 1 mg/ml with the formulation of 10% DMSO+10% solutol HS15+80% (10% HPβCD in water). Blood samples (0.2 mL) were collected at 0 h (pre-dose) and 0.25, 0.5, 1, 2, 4, 8, 24 h time points after administration of compounds at the dose of 10 mg/kg. The collected blood samples were centrifuged without delay and the plasma was separated and transferred into tubes before storage at -70° C. prior to analysis. Aliquots of the plasma unknowns, blank and calibration standards were placed in 1.5 mL tubes and mixed with acetonitrile/methanol (1/1, v/v) containing IS. After vortexing for 5 min, each sample was centrifuged at 14000 rpm at 4° C. for 10 min. The supernatant were injected into the LC-MS/MS system. […] Eluates were analyzed using an API4000 Q-Trap mass spectrometer with a TurboIonSpray interface. Chromatographic separation was done with a mobile phase composed of water with 0.1% formic acid (solution A) and acetonitrile with 0.1% formic acid (solution B). The mobile phase was delivered at a flow rate of 0.6 mL/min, using a stepwise gradient elution program. To improve the sensitivity of the test compound screening, a MRM method in positive electrospray ionization mode was employed. Mass spectrometry data was acquired and analyzed using AB Sciex Analyst version 1.6.2 software. The pharmacokinetic parameters were derived using standard noncompartmental methods with Phoenix WinNonLin Professional Version 8.1.

[3] = test system: pooled human hepatocytes; assay: Human hepatocyte clearance study; format: in vitro ADME
[4] = Human hepatocyte clearance study; format: in vitro ADME; conditions: human, pooled cryopreserved human hepatocytes (suspension), working cell density 2 × 10^6 viable cells/mL

AUC(0-t) ([2]; read-out: Rat PO (10 mpk) AUC last): 3.8 µM·h | Cmax ([2]; read-out: Rat PO (10 mpk) Cmax): 1060 nM | bioavailability ([2]; read-out: Rat PO (10 mpk) F %): 54%
Compound: C=CC(=O)N1C[C@H](C)N(c2nc(=O)n(-c3c(C4CC4)ncnc3C3CC3)c3nc(-c4c(N)cccc4F)c(Cl)cc23)C[C@H]1C [Compound 126]
reducing tumor volume compared with AMG510 ([1]; 30 mg/kg oral once daily vs AMG510 at 30 mg/kg, FIG. 2): more effective than AMG510 | reduction of tumor volume, combined treatment vs either agent alone ([1]; Compound 126 at 5 mg/kg combined with RMC-4550 at 10 mg/kg): much better reduction of tumor volume | reduction of tumor volume, combined treatment vs either agent alone ([1]; Compound 126 at 5 mg/kg combined with cisplatin at 2 mg/kg): much better reduction of tumor volume | human hepatocyte clearance profile compared to control compounds [3]: better human hepatocyte clearance profile | Human Hepatocyte Remaining Percentage @ 120 min (%) ([3]; working cell density 2 × 10^6 viable cells/mL): 47.8% | hepatocyte CLint at 1 µM ([4]; read-out: Human In vitro Clint (μl/min/10^6 cells)): 6.6 µL/min/1e6 cells | half-life at 1 µM ([4]; read-out: Human In vitro T1/2): 1.73 h | CLint scaled at 1 µM ([4]; read-out: Human Scale-up Clint): 17 mL/min/kg
